Data reported in patent US20040053974A1, “Medicinal compositions containing diuretic and insulin resistance-improving agent” (priority 2000, published 2004).
Marks after values point to notes of the source that are not given here.

Key:
Format in all cases: in vivo, rat
Zucker fatty rats = assay: Co-administration of furosemide or amiloride with compound A for 14 days: blood parameters, heart-weight, circulating serum volume; settings: for blood dilution (decreases in hematocrit value and the number of red blood cells) caused by compound A / increases in circulating serum volume caused by compound A / increases in heart-weight caused by compound A: orally 14 days, 1 ml/kg of furosemide 100 mg/ml or amiloride 10 mg/ml
Description: Zucker fatty rats (7 weeks old, SLC, Shizuoka, Japan) were grouped as 5 rats a group. Mean body weight, plasma glucose and glyceride levels, hematocrit value, and the number of red blood cells in each group were similar among the groups. The rats were allowed to take food pellets (F2, Funabashi Farm) and water ad libitum. In the control group, the rats were given only food pellets, while the rest of rats were administered 5-[4-(6-methoxy-1-methyl-1H-benzimidazol-2-ylmethoxy)benzyl]thiazolidine-2,4-dione hydrochloride (suspended in 0.5% solution of carboxymethylcellulose (CMC)) at a volume of 1 ml/kg orally by gavage. In the groups of rats administered the above compound with furosemide (100 mg/ml, suspended in 0.5% CMC solution) or amiloride (10 mg/ml, suspended in distilled water), these diuretics were orally administered by gavage for 14 successive days at a volume of 1 ml/kg. After the final administration, the rats were fasted overnight, and their blood was collected from the tail vein with a capillary treated with heparin and EDTA on the 15th day.
Plasma glucose level and blood cell parameters were determined using an automatic analyzer (plasma glucose: Glucoloader GX-T, A&T Corp., blood cell parameters: K-1000, Sysmex Corporation, Kobe, Japan). Triglyceride was detected by the absorbance method with a kit (Triglyceride-E Test Wako, Wako Pure Chemical Industries, Ltd.). Concentrations of insulin and leptin were detected with RIA kits (Rat Insulin RIA Kit, Linco Research Inc.). Furthermore, circulating serum volume was determined by the dilution method using Evans blue.

female Wistar rats [1] = assay: Co-administration of furosemide with compound A: circulating serum volume, heart-weight, edema and hydrothorax (macroscopic observation)
Description: 5-[4-(6-Methoxy-1-methyl-1H-benzimidazol-2-ylmethoxy)benzyl]thiazolidine-2,4-dione hydrochloride (200 mg/kg) was repeatedly and orally administered by gavage for 3 or 7 successive days to female Wistar rats (7 weeks old, Charles River Japan, Inc.) and furosemide (120 mg/kg and 240 mg/kg) was dietarily administered during the period.

female Wistar rats [2] = assay: Heart-weight and circulating serum volume (Evans blue method) after repeated oral administration; settings: for Ratio against control Heart-Weight / Ratio against control Circulating Serum volume: 200 mg/kg orally by gavage, female Wistar rats
Description: After 5-[4-(6-methoxy-1-methyl-1H-benzimidazol-2-ylmethoxy)benzyl]thiazolidine-2,4-dione hydrochloride (200 mg/kg) was repeatedly and orally administered by gavage for 3 or 7 successive days to female Wistar rats (7 weeks old, Charles River Japan, Inc.), circulating serum volume was determined by Evans blue methods and heart-weight recorded.

[3] = co-administered with compound A, Zucker fatty rats
[4] = Furosemide 120 mg/kg dietary, co-administered with Compound A 200 mg/kg orally, female Wistar rats
[5] = Furosemide 240 mg/kg dietary, co-administered with Compound A 200 mg/kg orally, female Wistar rats
[6] = furosemide 120 and 240 mg/kg dietary co-administered with compound A 200 mg/kg
[7] = furosemide 120 and 240 mg/kg dietary co-administered with compound A 200 mg/kg, FIG. 1
[8] = 7 successive days, n = 12, p < 0.01
[9] = 200 mg/kg orally, after administration for both 3 and 7 days
[10] = Compound A 200 mg/kg orally, Furosemide 0, female Wistar rats
[11] = orally by gavage, 14 successive days, Zucker fatty rats, FIG. 2

N=C(N)NC(=O)c1nc(Cl)c(N)nc1N [amiloride]
ameliorating effects compared with furosemide (Zucker fatty rats; amiloride at 1/10 the dose of furosemide, co-administered with compound A, Zucker fatty rats): at least as potent as those of furosemide
blood dilution (decreases in hematocrit value and the number of red blood cells) caused by compound A (Zucker fatty rats; [3]): suppressed
increases in circulating serum volume caused by compound A (Zucker fatty rats; [3]): suppressed
increases in heart-weight caused by compound A (Zucker fatty rats; [3]): suppressed
suppression of side effects caused by insulin sensitizers, relative to diuretic action (Zucker fatty rats; rats co-treated with amiloride and compound A): more potent than those predicted from its diuretic action

NS(=O)(=O)c1cc(C(=O)O)c(NCc2ccco2)cc1Cl [Furosemide, furosemide]
Macroscopic Observation, Edema: Subcutaneous tissue (incidence) (female Wistar rats [1]; [4]): 0/12
Macroscopic Observation, Edema: brown adipose tissue (incidence) (female Wistar rats [1]; [4]): 12/12
Macroscopic Observation, Edema: interstitial tissue of thymus (incidence) (female Wistar rats [1]; [4]): 0/12
Macroscopic Observation, Hydrothorax (incidence) (female Wistar rats [1]; [4]): 2/12
mean weight of thymus (female Wistar rats [1]; [4]): 450.6 mg
Macroscopic Observation, Edema: Subcutaneous tissue (incidence) (female Wistar rats [1]; [5]): 0/12
Macroscopic Observation, Edema: brown adipose tissue (incidence) (female Wistar rats [1]; [5]): 10/12
Macroscopic Observation, Edema: interstitial tissue of thymus (incidence) (female Wistar rats [1]; [5]): 0/12
Macroscopic Observation, Hydrothorax (incidence) (female Wistar rats [1]; [5]): 0/12
mean weight of thymus (female Wistar rats [1]; [5]): 375.9 mg
Decreases in the number of circulating red blood cells produced by compound A (female Wistar rats [1]; [6]): prevented
edema and hydrothorax associated with administration of compound A (female Wistar rats [1]; [6]): suppressed
increases in circulating serum volume elicited by compound A (female Wistar rats [1]; [7]): suppressed
increases in heart-weight elicited by compound A (female Wistar rats [1]; [7]): suppressed
blood dilution (decreases in hematocrit value and the number of red blood cells) caused by compound A (Zucker fatty rats; [3]): suppressed
increases in circulating serum volume caused by compound A (Zucker fatty rats; [3]): suppressed
increases in heart-weight caused by compound A (Zucker fatty rats; [3]): suppressed

COc1ccc2nc(COc3ccc(CC4SC(=O)NC4=O)cc3)n(C)c2c1.Cl (stereo not shown) [compound A, 5-[4-(6-methoxy-1-methyl-1H-benzimidazol-2-ylmethoxy)benzyl]thiazolidine-2,4-dione hydrochloride]
Ratio against control Heart-Weight (female Wistar rats [2]; 3 successive days, n = 5-6): 1.03^a)
Ratio against control Circulating Serum volume (female Wistar rats [2]; 3 successive days, n = 5-6, p < 0.05): 1.18^a)*
Ratio against control Circulating Serum volume (female Wistar rats [2]; [8]): 1.30^b)**
Ratio against control Heart-Weight (female Wistar rats [2]; [8]): 1.22^b)**
Circulating serum volume (female Wistar rats [2]; [9]): increased
heart-weight (female Wistar rats [2]; [9]): increased
Macroscopic Observation, Edema: Subcutaneous tissue (incidence) (female Wistar rats [1]; [10]): 1/12
Macroscopic Observation, Edema: brown adipose tissue (incidence) (female Wistar rats [1]; [10]): 12/12
Macroscopic Observation, Edema: interstitial tissue of thymus (incidence) (female Wistar rats [1]; [10]): 1/12
Macroscopic Observation, Hydrothorax (incidence) (female Wistar rats [1]; [10]): 6/12
mean weight of thymus (female Wistar rats [1]; [10]): 521.4 mg
number of circulating red blood cells (female Wistar rats [1]; compound A 200 mg/kg orally, female Wistar rats): Decreases
blood glucose levels (Zucker fatty rats; orally by gavage, 14 successive days, Zucker fatty rats): decreasing
HOMA-R, an indicator of insulin resistance (Zucker fatty rats; [11]): remarkably decreased
heart-weight (Zucker fatty rats; [11]): increases
hematocrit value (dilution of the blood) (Zucker fatty rats; [11]): decreases
number of red blood cells (dilution of the blood) (Zucker fatty rats; [11]): decreases
triglyceride levels (Zucker fatty rats; [11]): remarkably decreased
